In patent publication EP4745130A1, “CRYSTAL FORMS OF TUBULIN-SRC DUAL-TARGETING INHIBITOR, PREPARATION METHOD THEREFOR AND USE THEREOF” (Hubei Bio-Pharmaceutical Industrial Technological Institute …, priority 2023, dated 2025):
In brackets after ≈: the same amount, converted by molar mass. Structures can show the parent of a compound that is named as a salt. Where two headings read alike, the source gives them in different places. Values belong to the compound of their own block, whether it stands above or below them.

What was measured:
[1] = system: Human cutaneous squamous cell carcinoma cell A-431; experiment: Cell proliferation inhibition test, A-431; type: cell-based; conditions: A-431, 96 h, 4 days incubation
Description: (§1) Human cutaneous squamous cell carcinoma cell A-431 (ATCC, CRL-1555) and actinic keratosis patient-derived cell HT 297.T (ATCC, CRL-7782) proliferation assays were used to detect the inhibitory effect of small molecular compounds on cell proliferation.
A-431 cells and HT 297.T cells were cultured in DMEM medium containing 10% fetal bovine serum and grown at 37°C in a 5% CO2 incubator. Cells on logarithmic phase were seeded into a 96-well cell culture plate at 1000 cells/well, 100 µL per well, and then cultured overnight at 37°C in a 5% CO2 incubator. The next day, 100 µL of gradient-diluted 2× test compound solution was added to each well, with DMSO serving as a positive control, and 10 µM staurosporine (Aladdin, S102392) was set as a negative control group. After the addition of the compounds, the culture plate was incubated for another 4 days at 37°C in a 5% CO2 incubator. After incubation, the Steady-Glo® luciferase assay system (Promega, G9243) was used according to the supplier's instructions to measure the fluorescence signal value on the Envision 2104 Multilabel Reader. The inhibition rate was calculated by the following formula, then the curve was plotted with the Log value of the inhibitor concentration as the X-axis and the inhibition rate as the Y-axis, and the IC50 was calculated using Graphpad 8.0. [formula] […]

tubulin = molecular target: T1, tubulin (Sus scrofa, UniProt P02550+P02554); experiment: Inhibition test of tubulin monomer polymerization (Tubulin polymerization assay kit, fluorescence); type: biochemical; conditions: 5 µL of 12.5 µM compound solution; fluorescence ex 360 nm / em 420 nm, 37°C; larger value = lower inhibitory efficiency
T1 construct: purchased cytoskeleton BK011P
Description: Tubulin polymerization assay kit (cytoskeleton, Cat. # BK011P) was used to conduct the compound inhibition test of tubulin monomer polymerization.
Before the test, the 96-well plate (Corning Costar, Cat. # 3686) supplied with the kit was first placed in a microplate reader (MD, SpectraMax M5) and heated to 37°C, maintained for 10 minutes. The 96-well plate was then removed, and 5 µL of 12.5 µM compound solution or blank solution was added thereto. The 96-well plate was then placed back into the microplate reader and incubated at 37°C for 1 minute to heat the compound solution to 37°C. The 96-well plate was removed and 50 µL of reaction mixture prepared according to the supplier's instructions was quickly added to each well, completing the sample addition within 1 minute to avoid the formation of bubbles. The 96-well plate was then immediately placed back into the microplate reader, shaken for 5 seconds, and using the Kinetic mode, continuous detection was carried out at 37°C for 30 to 60 minutes under the conditions of excitation light at 360 nm and emission light at 420 nm, with detection every 30 seconds. Taking the detection time as the X-axis and the fluorescence signal value as the Y-axis, the tubulin monomer polymerization curve was obtained. As shown in FIG. 66 and Table 40, the larger the Vmax value and the higher the maximum fluorescence signal value of the polymerization curve, the lower the inhibitory efficiency of the compound.

[2] = Human liver microsome stability test; type: in vitro ADME; conditions: human liver microsomes, NADPH, 37°C, 0-45 min
Description: The human liver microsome stability test was performed by incubating the compound and human liver microsomes in vitro. First, the compound to be tested was prepared into a 10 mM stock solution in DMSO solvent, and then the compound was diluted to 0.5 mM with acetonitrile. Human liver microsomes (Corning) were diluted with PBS into a microsome/buffer solution, and the solution was used to dilute 0.5 mM compound into a working solution, in which the concentration of the compound was 1.5 µM, and the concentration of human liver microsomes was 0.75 mg/mL. A deep-well plate was taken, 30 µL of the working solution was added per well, and then 15 µL of pre-heated 6 mM NADPH solution was added thereto to initiate a reaction, and the reaction was incubated at 37°C. At 0, 5, 15, 30 and 45 min of the incubation, 135 µL of acetonitrile was added to the corresponding wells to terminate the reaction. After the reaction was terminated with acetonitrile at the last time point of 45 min, the deep-well plate was vortexed and shaken for 10 min (600 rpm), and then centrifuged for 15 min. After centrifugation, the supernatant was collected, and added with purified water in a ratio of 1:1 to perform LC-MS/MS detection. A ratio of a peak area of compound to a peak area of internal standard at each time point was obtained, and the peak area ratios of the compound at 5, 15, 30 and 45 min were compared with the peak area ratio at 0 min to calculate the remaining percentage of the compound at each time point. T1/2 was calculated by using GraphPad 5 software. Table 45: Results of human liver microsome stability test

[3] = Pharmacokinetic test in mice; type: in vivo; conditions: mouse, plasma, male ICR mice
Description: For the pharmacokinetic test in mice, 3 male ICR mice, 20 to 25 g, were used, fasted overnight, and administered by tail vein injection (1 mg/kg or 5 mg/kg). Blood was collected before the administration, and at 15 min, 30 min, 1 hour, 2 hours, 4 hours, 8 hours, and 24 hours after the administration. Another 3 mice were taken and administered by oral gavage (5 mg/kg), and blood was collected before the administration, and at 15 min, 30 min, 1 hour, 2 hours, 4 hours, 8 hours, and 24 hours after the administration. Blood samples were centrifuged at 6800 g at 2 to 8°C for 6 min, and plasma was collected and stored at -80°C. The plasma at each time point was taken and added with an acetonitrile solution containing internal standard in 3 to 5 times the amount. The mixture was vortexed and mixed for 1 min, and centrifuged at 13,000 rpm at 4°C for 10 min. The supernatant was collected, added with water in 3 times the amount, and mixed. An appropriate amount of the mixture was taken for LC-MS/MS analysis. The main pharmacokinetic parameters were analyzed using WinNonlin 7.0 software with non-compartmental model. Table 43: Results 1 of pharmacokinetic tests in mice

[4] = system: actinic keratosis patient-derived cell HT 297.T; experiment: Cell proliferation inhibition test, HT 297.T; type: cell-based, Human; conditions: Homo sapiens, 96 h; 4 days incubation
Description: as §1
A-431 cells and HT 297.T cells were cultured in DMEM medium containing 10% fetal bovine serum and grown at 37°C in a 5% CO2 incubator. Cells on logarithmic phase were seeded into a 96-well cell culture plate at 1000 cells/well, 100 µL per well, and then cultured overnight at 37°C in a 5% CO2 incubator. The next day, 100 µL of gradient-diluted 2× test compound solution was added to each well, with DMSO serving as a positive control, and 10 µM staurosporine (Aladdin, S102392) was set as a negative control group. After the addition of the compounds, the culture plate was incubated for another 4 days at 37°C in a 5% CO2 incubator. After incubation, the Steady-Glo® luciferase assay system (Promega, G9243) was used according to the supplier's instructions to measure the fluorescence signal value on the Envision 2104 Multilabel Reader. The inhibition rate was calculated by the following formula, then the curve was plotted with the Log value of the inhibitor concentration as the X-axis and the inhibition rate as the Y-axis, and the IC50 was calculated using Graphpad 8.0. [formula] Table 41: Inhibition results of test compounds on proliferation activity of A-431 and HT 297.T cells

[5] = Thermodynamic solubility test; type: physicochemical; conditions: thermodynamic from solid, 4 mg/mL, overnight at room temperature
Description: Phosphate buffer saline (PBS) with a pH of 7.4, FeSSIF solution with a pH of 6.5, and FaSSGF solution with a pH of 1.6 were prepared. The compound was accurately weighed and added to prepared phosphate buffer saline with a pH of 7.4, FeSSIF solution with a pH of 6.5, and FaSSGF solution with a pH of 1.6 to prepare into a solution with a concentration of 4 mg/mL. The solution was shaken at a speed of 1000 rpm for 1 hour, and then incubated overnight at room temperature. The incubated solution was centrifuged at 12,000 rpm for 10 minutes to remove undissolved particles, and the supernatant was transferred to a new centrifuge tube. After the supernatant was appropriately diluted, an acetonitrile solution containing internal standard was added, and a standard curve prepared with the same matrix was used for quantification. Table 42: Thermodynamic solubility test results

[6] = Dynamic solubility experiment at 37°C (water, SGF, FaSSIF, FeSSIF); conditions: for S: solubility: solid feed 10 mg/mL; for pH: pH value of the filtrate
Description: (§2) Rotating mixing was carried out at 37°C at a solid feed concentration of 10 mg/mL (calculated as the compound of Formula I). […] After sampling at each time point, the samples were centrifuged (10000 rpm) and filtered (0.45 µm PTFE filter head), and the HPLC concentration and pH value of the filtrate were measured.
(§3) 100 mg of NaCl and 50 mg of Triton X-100 were weighed into a 50 mL volumetric flask, and purified water was added to complete dissolution. 816 µL of 1 M hydrochloric acid was added thereto, and the pH was adjusted to 1.8 with 1 M hydrochloric acid or 1 M NaOH solution. Purified water was added to make up to volume.
(§4) 340 mg of anhydrous NaH2PO4 and 620 mg of NaCl were weighed into a 100 mL volumetric flask. Purified water was added to complete dissolution, followed by addition of 55.44 µL of 50% NaOH solution, and the pH was adjusted to 6.5 using 1M HCl or 1M NaOH solution. Purified water was added to make up to volume. 110 mg of SIF powder was then weighed into a 50 mL volumetric flask, added with the above solution to complete dissolution and make up to volume.
(§5) 0.82 mL of glacial acetic acid and 1.18 g of NaCl were added to a 100 mL volumetric flask. Purified water was added to complete dissolution, followed by addition of 528 µL of 50% NaOH solution, and the pH was adjusted to 5.0 using 1M HCl or 1M NaOH solution. Purified water was added to make up to volume. 560 mg of SIF powder was then weighed into a 50 mL volumetric flask, added with the above solution to complete dissolution and make up to volume.

[7] = Solid-state stability (XRPD and HPLC after open storage); type: physicochemical; conditions: for Crystal form: XRPD
Description: The purity test, dynamic solubility test, and stability test in the assay were measured using an Agilent 1260 high-performance liquid chromatograph, and the salt formation molar ratio of ions was tested by ion chromatography, and the analytical conditions are shown in Table 19 and Table 20. Table 19 High-performance liquid chromatography test conditions

[8] = Hygroscopicity test by dynamic vapor sorption (DVS); type: physicochemical
Description: The dynamic vapor sorption (DVS) curve was collected on DVS IntrInsic from SMS (surface measurement systems). The relative humidity at 25°C was corrected using the deliquescence points of LiCl, Mg(NO3)2, and KCl. Table 18 DVS test parameters
The percentage change in sample mass was collected under constant temperature at 25°C as humidity varied from 0%RH to 95%RH.

[9] = Variable humidity XRPD (VH-XRPD); type: physicochemical
Excerpt: The XRPD pattern was collected on an X-ray powder diffraction analyzer produced by PANalytacal, and the scanning parameters are shown in Table 16. Table 16 XRPD test parameters
Under low-humidity conditions (e.g., 30% RH), the sample reverts to the anhydrous crystal form A of the fumarate salt.

[10] = intravenous injection administration (1 mg/kg)
[11] = oral gavage administration (5 mg/kg)

T1 sequence (P02550 whole entry): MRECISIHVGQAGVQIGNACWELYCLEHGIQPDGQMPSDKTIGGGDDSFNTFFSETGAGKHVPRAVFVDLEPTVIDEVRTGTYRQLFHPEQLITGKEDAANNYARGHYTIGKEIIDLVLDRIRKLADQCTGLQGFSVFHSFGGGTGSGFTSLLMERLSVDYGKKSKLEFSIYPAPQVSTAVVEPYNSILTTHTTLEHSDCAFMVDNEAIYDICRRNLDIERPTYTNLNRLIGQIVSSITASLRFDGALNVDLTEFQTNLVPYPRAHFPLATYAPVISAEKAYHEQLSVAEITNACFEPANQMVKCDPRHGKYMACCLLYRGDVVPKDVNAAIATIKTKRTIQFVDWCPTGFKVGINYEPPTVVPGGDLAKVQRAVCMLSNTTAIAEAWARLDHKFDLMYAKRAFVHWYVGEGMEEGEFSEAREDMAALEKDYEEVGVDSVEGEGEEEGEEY
T1 sequence (P02554 whole entry): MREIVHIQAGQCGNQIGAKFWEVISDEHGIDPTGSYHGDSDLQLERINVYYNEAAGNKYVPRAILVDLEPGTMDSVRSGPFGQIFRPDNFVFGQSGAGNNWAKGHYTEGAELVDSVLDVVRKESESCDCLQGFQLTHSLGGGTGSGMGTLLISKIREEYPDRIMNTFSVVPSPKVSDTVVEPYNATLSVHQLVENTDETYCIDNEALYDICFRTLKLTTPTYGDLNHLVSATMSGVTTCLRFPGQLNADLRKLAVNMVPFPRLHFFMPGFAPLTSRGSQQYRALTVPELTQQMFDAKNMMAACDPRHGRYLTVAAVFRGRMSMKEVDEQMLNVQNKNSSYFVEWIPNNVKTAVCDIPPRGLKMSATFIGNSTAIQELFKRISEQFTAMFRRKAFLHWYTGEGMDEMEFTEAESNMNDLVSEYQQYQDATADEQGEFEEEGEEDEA
Description for physchem: as §2, §3, §4, §5

IC50 [1]: 40.3 nM
Maximum signal value (tubulin): 611
half-life at 1 µM [2]: 32.2 min
AUC(0-t) [3, 10]: 525 ng·h/mL
clearance [3, 10]: 31.3 mL/min/kg
AUC(0-t) [3, 11]: 1820 ng·h/mL
Cmax [3, 11]: 1010 ng/mL
solubility ([5]; FeSSIF solution, FeSSIF (pH 6.5), read-out: Solubility (µg/mL) FeSSIF (pH 6.5)): 60.5 µg/mL (≈ 140 µM)
solubility ([5]; phosphate buffer saline (PBS), aqueous buffer, PBS (pH 7.4), read-out: Solubility (µg/mL) PBS (pH 7.4)): 9.77 µg/mL (≈ 22.6 µM)
SMILES: O=C(Cc1ccc(-c2ccc(OCCN3CCOCC3)cc2)cn1)NCc1ccccc1 [Control compound, Tirbanibulin, reference compound]
IC50 [4]: 85.4 nM

S: solubility ([6]; FaSSIF, 1 hour, 60 min): 8.72 mg/mL
S: solubility ([6]; FaSSIF, 4 hours, 240 min): 8.94 mg/mL
S: solubility ([6]; FaSSIF, 24 hours, 1440 min): 8.24 mg/mL
S: solubility ([6]; H2O, 1 hour, 60 min): 9.44 mg/mL
S: solubility ([6]; H2O, 4 hours, 240 min): 9.72 mg/mL
S: solubility ([6]; H2O, 24 hours, 1440 min): 9.38 mg/mL
pH ([6]; FaSSIF, 1 hour): 4.3
pH ([6]; FaSSIF, 4 hours): 4.4
pH ([6]; FaSSIF, 24 hours): 4.4
pH ([6]; FeSSIF, 1 hour): 4.6
pH ([6]; FeSSIF, 4 hours): 4.6
pH ([6]; FeSSIF, 24 hours): 4.6
pH ([6]; H2O, 1 hour): 4.0
pH ([6]; H2O, 4 hours): 4.0
pH ([6]; H2O, 24 hours): 4.0
pH ([6]; SGF, 1 hour): 3.4
pH ([6]; SGF, 4 hours): 3.4
pH ([6]; SGF, 24 hours): 3.4
Purity (area%) ([7]; 25°C/60%RH/open, 1 week): 97.02 area%
Relative to initial (%) ([7]; 25°C/60%RH/open, 1 week): 100.0%
Crystal form ([7]; 25°C/60%RH/open, 1 week): Crystal form A of fumarate salt
Purity (area%) ([7]; 40°C/75%RH/open, 1 week): 97.09 area%
Relative to initial (%) ([7]; 40°C/75%RH/open, 1 week): 100.1%
Crystal form ([7]; 40°C/75%RH/open, 1 week): Crystal form A of fumarate salt
Purity (area%) ([7]; Initial): 96.99 area%
hygroscopicity ([8]; DVS, 25°C, 0%RH to 95%RH, listed as crystal form A of the fumarate salt): significantly hygroscopic above 70% RH
weight change in DVS test ([8]; high-humidity conditions (>70% RH)): significant weight gain
solubility at 1 h (physchem; fessif): 3630 µg/mL
solubility at 4 h (physchem; fessif): 3600 µg/mL
solubility at 24 h (physchem; fessif): 3610 µg/mL
solubility at 1 h (physchem; sgf): 9650 µg/mL
solubility at 4 h (physchem; sgf): 9820 µg/mL
solubility at 24 h (physchem; sgf): 9170 µg/mL
XRPD change at high humidity ([9]; placed at 85% RH): shift in diffraction peaks
SMILES: Cc1cc(OCCN2C[C@H]3COC[C@H]3C2)ccc1-c1ccc(CC(=O)NCc2ccccc2)nc1 [Crystal form A of fumarate salt]
crystal form after return to low humidity ([9]; returned to 30% RH): converted back to the crystal form A of the fumarate salt
